Laboratory results reported in ChEMBL document CHEMBL1146411, “1-Hydroxyditerpenes from Two New Zealand Liverworts, Paraschistochila pinnatifolia and Trichocolea mollissima” (J Nat Prod, 1997).
Converted amounts (≈) assume the structure as drawn. The source made the active and inactive calls. The calls are words filed in the database; no cut-off is given here.

Columns and labels:
[1] = tested on: P388; test: Cytotoxicity against mouse P388 cells; type: functional, cell-based
[2] = Cytotoxicity against […] BSC cells at 60 ug/disk; type: cell-based
[3] = tested on: Candida albicans; test: Antimicrobial activity against Candida albicans at 60 ug/disk; type: functional, organism-based

| Compound | IC50 [1] [µg/mL] | Activity [2] | Activity [3] |
| --- | --- | --- | --- |
| C[C@@H]1C[C@@]23CC[C@@H]4C(C)(C)CC[C@H](O)[C@@]4(C)[C@@H]2CC(=O)[C@@H]1C3 | 15 (≈ 49.3 µM) | – | – |
| C=C[C@@]1(C)C=C2CC[C@@H]3C(C)(C)CC[C@H](O)[C@@]3(C)[C@@H]2CC1 | > 25 | Not Active | inactive |
